# Source: patent publication US7943775B2, “Small molecules for imaging protein-protein interactions” (The United States of America as represented by the …, priority 2006, dated 2011)
# Columns and labels:
# FKBP12 = molecular target: T1, FKBP12 (Homo sapiens, UniProt P62942); experiment: ELISA screening of candidates for the chaperone binding portion (FKBP12); conditions: for Average Luminescence Concentration (CPS): compound coated at 1 μM; for binding affinity to chaperone FKBP12, in words: comparison of the four isomers
# T1 construct: His (6xHis); made in house; host or cells: E. coli BL21-AI
# Protocol: The following four compounds, synthesized as described in, or in a manner analogous to the description in, Example 3, were tested for their suitability as candidates for the chaperone binding portion of the construct of this invention. The chaperone to which binding was evaluated was FKBP12 and, screening was performed by ELISA.
# Step 1. Sample Solutions. Four samples of each of the test compounds were prepared by dissolving the compounds in the coating buffer described in Example 2 to a final concentration of 1 μM.
# Step 2. Coating the Plate. The wells of a 96-well microtiter plate were coated with the sample solutions at 100 μL/well. The plates were then sealed and allowed to incubate at 4° C. for at least 8 hours.
# Step 3. Washing the Plate. The coating solution was removed from the wells and the plate was washed two times with the washing solution of Example 2 at 300 μL/well.
# Step 4. Blocking. The blocking buffer used in Example 2 was added at a volume of 150 μL/well, and the plate was incubated at room temperature for 2 hours.
# Step 5. Sampling. Biotin-labeled FKBP12 was dissolved in a binding buffer to form a 1 μM solution. The binding buffer was a mixture of a coating buffer with the blocking buffer of Step 4 in a 90:10 ratio by volume. The coating buffer consisted of 50 mM Tris (Trizma Base from Sigma-Aldrich), 150 mM NaCl, 1 mM CaCl2, 1mM MgCl2, 1 mM MnCl2, pH=7.4 in redistilled water. Once blocking had been completed in Step 4, the blocking buffer was removed from each well, and the biotin-labeled […] solution was placed in one of the wells for each of the four test compounds, together with additional blocking buffer for a total volume of 125 μL in the well. Dilutions were then prepared to achieve final concentrations per well of […]. The dilutions were performed in quadruplicate, thus resulting in four sets of wells for each test compound. The procedures used for cloning, expression, and purification of FKBP12 are provided at the end of this example.
# Step 6. Mixing. The solution in each well was mixed by being drawn into and ejected from a pipette 15 times. The plate was then gently agitated to achieve thorough mixing. After mixing, the plate was covered and incubated at room temperature overnight.
# Step 7. Washing. The solution in each well was discarded and the plate was washed three times with 170 μL/well of the washing solution of Example 2.
# Step 8. Binding with avidin-HRP. NeutrAvidinHRP solution was added to each well at 0.01 μg (100 μL)/well. The wells were then covered and incubated at room temperature for 30 minutes.
# Step 9. Substrate addition. The solution in each well was discarded and the plate was washed 3 times with the above-referenced washing solution at 170 μL/well of washing solution. A chemiluminescent substrate solution was then added at 100 μL/well.
# Step 10. Fluorescence measurement and calculations.
# Biotin-labeled amyloid-β [1] = molecular target: T2, Biotin-labeled amyloid-β (Homo sapiens, UniProt P05067); experiment: ELISA assay, binding of biotin-labeled amyloid-β to plate-coated test compounds; conditions: compound coated at 1 μM
# Protocol: Step 1. Sample Solution Preparations. For each test compound, four samples and two standard solutions using Thioflavin-T as the standard were prepared in a coating buffer, each to a final concentration of 1 μM. The coating buffer was 50 mM Tris (Trizma Base from Sigma Aldrich, Inc., St. […] Step 2. Coating the Plate. The sample solutions were applied to individual wells of a 96-well polystyrene microtiter plate at 100 μL/well. The plates were sealed and allowed to incubate at 4° C. for at least 8 hours. Step 3. Washing the Plate. The sample solutions were removed and the plate was washed two times with 300 μL/well of washing solution, which consisted of a 1 to 25 dilution in water of DELFIA® Wash Concentrate (PerkinElmer Life Sciences, Inc., Boston, Mass., USA). Step 4. Blocking. Blocking was achieved by adding 150 μL/well of a blocking buffer which consisted of a 1 to 20 dilution in water of Milk Diluent/Blocking Solution Concentrate (from KPL, Inc., Gaithersburg, Md., USA). The plate was then incubated at room temperature for 2 hours. Step 5. Sampling. Biotin-labeled amyloid-β was dissolved in a binding buffer to form a 1 μM solution of the amyloid-β. The binding buffer was a mixture of a coating buffer with the blocking buffer of Step 4 in a 90:10 ratio by volume. […] The dilutions were performed in quadruplicate, thus resulting in four sets of wells for each test compound. Step 6. Mixing. The solution in each well was mixed by being drawn into and ejected from a pipette 15 times. The plate was then gently agitated for further mixing. The plate was then covered and incubated at room temperature overnight. Step 7. Washing. The solution in each well was discarded and the plate was washed three times with 170 μL/well of the washing solution described above. Step 8. Binding with avidin-HRP. NeutrAvidinHRP solution was added to each well at 0.01 μg/well. The wells were then covered and incubated at room temperature for 30 minutes. Step 9. Substrate addition. The solution in each well was discarded and the plate was washed 3 times with the above-referenced washing solution at 170 μL/well of washing solution. A chemiluminescent substrate solution which was a mixture of equal volumes of LumiGLO Substrate A and LumiGLO Substrate B from KPL, Inc., was then added at 100 μL/well. Step 10. Fluorescence measurement and calculations. Luminescence was read on a Wallac Victor 1420 Multilabel Reader (PerkinElmer Life Sciences, Inc., Boston, Mass., USA). […] Average luminescence concentrations in counts per second (CPS) for each of the four β-amyloid-binding portion candidates at each dilution of the biotin-labeled β-amyloid are shown in Table I below.
# Biotin-labeled amyloid-β [2] = molecular target: T2, Biotin-labeled amyloid-β; experiment: Dose response assay, plate-coated test compounds at 6 concentrations vs biotin-labeled amyloid β; assay type: binding; conditions: biotin-labeled amyloid at 1 μM; compounds coated at 6 concentrations
# Protocol: Step 1. Coating the plate. The four compounds 3a, 3b, 3c, and 3d were diluted to 6 different concentrations in the same coating buffer used in the ELISA. The resulting solutions were applied to individual wells of a 96-well polystyrene microtiter plate at 100 μL/well. The plate was then sealed and allowed to incubate at 4° C. for at least 8 hours.
# Step 2. Washing the plate. The sample solutions were then removed and the plate was washed twice with 300 μL/well of the same washing solution used in the ELISA.
# Step 3. Blocking. The blocking buffer used in the ELISA was added at a volume of 150 μL/well, and the plate was incubated at room temperature for 2 hours.
# Step 4. Sampling. The blocking buffer was removed and biotin-labeled amyloid P was added to each well at a concentration of 1 μM in the same binding buffer used in the ELISA. The solution in each well was then mixed by being drawn into and ejected from a pipette 15 times. The plate was then gently agitated for further mixing. After mixing, the plate was covered and incubated at room temperature overnight.
# Step 5. Washing. The solution in each well was discarded and the plate was washed three times with 170 μL/well of the washing solution described above.
# Step 6. Binding with avidin-HRP and substrate. NeutrAvidinHRP solution was added to each well at 0.01 μg/well. The wells were then covered and incubated at room temperature for 30 minutes. The solution in each well was discarded and the plate was washed 3 times with the above-referenced washing solution at 170 μL/well of washing solution. The chemiluminescent substrate solution of the ELISA was then added at 100 μL/well, and luminescence was read using the Wallac Victor 1420 Multilabel Counter.
# Step 7. Reading and calculations. Values for average luminescence vs. concentration were developed in the same manner as in the ELISA. From these values were determined EC50 values for each of the four test compounds as β-amyloid-binding portion candidates.
# [3] = Concentration 1 (μM/well) biotin-labeled FKBP12
# [4] = Concentration 5 (μM/well) biotin-labeled FKBP12
# [5] = Concentration 10 (μM/well) biotin-labeled FKBP12
# [6] = Concentration 20 (μM/well) biotin-labeled FKBP12
# [7] = Concentration 30 (μM/well) biotin-labeled FKBP12
# [8] = Concentration 40 (μM/well) biotin-labeled FKBP12
# [9] = β-Amyloid Dilution 10 (μL/well)
# [10] = β-Amyloid Dilution 20 (μL/well)
# [11] = β-Amyloid Dilution 30 (μL/well)
# [12] = β-Amyloid Dilution 40 (μL/well)
# T2 sequence (P05067 672-711 limits assumed): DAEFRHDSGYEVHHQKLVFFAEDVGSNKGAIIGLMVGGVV
# T1 sequence (P62942 whole entry): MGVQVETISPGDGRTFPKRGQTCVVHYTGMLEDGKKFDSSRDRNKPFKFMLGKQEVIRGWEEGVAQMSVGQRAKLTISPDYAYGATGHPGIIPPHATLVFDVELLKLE
SMILES,Average Luminescence Concentration (CPS) (FKBP12; [3]),Average Luminescence Concentration (CPS) (FKBP12; [4]),Average Luminescence Concentration (CPS) (FKBP12; [5]),Average Luminescence Concentration (CPS) (FKBP12; [6]),Average Luminescence Concentration (CPS) (FKBP12; [7]),Average Luminescence Concentration (CPS) (FKBP12; [8]),"binding affinity to chaperone FKBP12, in words (FKBP12)",Average Luminescence Concentration (CPS) (Biotin-labeled amyloid-β [1]; β-Amyloid Dilution 1 (μL/well)),Average Luminescence Concentration (CPS) (Biotin-labeled amyloid-β [1]; β-Amyloid Dilution 5 (μL/well)),Average Luminescence Concentration (CPS) (Biotin-labeled amyloid-β [1]; [9]),Average Luminescence Concentration (CPS) (Biotin-labeled amyloid-β [1]; [10]),Average Luminescence Concentration (CPS) (Biotin-labeled amyloid-β [1]; [11]),Average Luminescence Concentration (CPS) (Biotin-labeled amyloid-β [1]; [12]),EC50 (Biotin-labeled amyloid-β [2]) [µM]
CCC(C)(C)C(=O)C(=O)N1CCCC[C@H]1C(=O)O[C@@H](CCc1ccc(OC)c(OC)c1)c1ccc(OCC(=O)O)cc1 [9-SS],297,876,931,579,1366,1231,low or moderate binding affinity,–,–,–,–,–,–,–
NCCCNC(=O)c1ccccc1Nc1cccc(C(F)(F)F)c1 [3b],–,–,–,–,–,–,–,878,1325,1694,2184,4629,4788,31.9
CCC(C)(C)C(=O)C(=O)N1CCCC[C@H]1C(=O)O[C@@H](CCc1ccc(OC)c(OC)c1)c1ccc(OCC(=O)O)cc1 [9-SR],762,1050,1218,1410,1478,1392,–,–,–,–,–,–,–,–
"CCC(C)(C)C(=O)C(=O)N1CCCC[C@H]1C(=O)O[C@H](CCc1ccc(OC)c(OC)c1)c1ccc(OCC(=O)O)cc1 [9-RS, (1R)-1-[4-(carboxymethoxy)phenyl]-3-(3,4-dimethoxy-phenyl)-1-propanyl (2S)-1-(3,3-dimethyl-1,2-dioxopentyl)-2-piperidinecarboxylate]",1399,1688,1685,2006,4244,5509,–,–,–,–,–,–,–,–
NCCCCCNC(=O)c1ccccc1Nc1cccc(C(F)(F)F)c1 [3d],–,–,–,–,–,–,–,105,220,678,1461,2662,2579,35.8
NCCCCNC(=O)c1ccccc1Nc1cccc(C(F)(F)F)c1 [3c],–,–,–,–,–,–,–,32,74,3128,161,2968,3025,36.2
CCC(C)(C)C(=O)C(=O)N1CCCC[C@H]1C(=O)O[C@@H](CCc1ccc(OC)c(OC)c1)c1ccc(OCC(=O)O)cc1 [9-RR],660,1158,769,371,1297,1138,low or moderate binding affinity,–,–,–,–,–,–,–
"Cc1ccc2c(c1)sc(-c1ccc(N(C)C)cc1)[n+]2C.[Cl-] [Thioflavin-T, reference compound]",–,–,–,–,–,–,–,940,570,731,86,2311,5140,–
